Reference: patent publication US20230348424A1, “HETEROCYCLIC COMPOUNDS AND METHODS OF USE” (Schrödinger, Inc., priority 2022, published 2023)

Key:
[1] = molecular target: SOS1:KRAS (G12C) interaction (Homo sapiens (Human), UniProt Q07889); experiment: SOS1 KRas(G12C) FRET Assay; type: binding; settings: 0.5 nM His10-SOS1 (res. 564-1049), 2.5 nM GST-KRAS G12C (res. 1-169), 2 hrs at RT
Procedure, shortened: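 GST-KRAS G12C (res. 1-169) at 2.5 nM and His10-SOS1 (res. 564-1049) at 0.5 nM, final, in PBS with 0.1% BSA, 5 mM MgCl2, 100 mM KF, 5 mM DTT and 0.5% DMSO. After 2 h at RT, FRET read at 665/615 nm and normalized to DMSO and no-SOS1 controls. IC50 by non-linear regression.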

human SOS1 = human SOS1 (Homo sapiens (Human), UniProt Q07889); experiment: Surface Plasmon Resonance (SPR) SOS1 Binding Assay; settings: biotinylated SOS1 (res. 564-1049), Biacore 8K, 25° C., kinetic or steady state fit, 1:1 binding; read-out: hSOS1 KD
Procedure, shortened: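 Biotinylated Avi-tagged human SOS1 (res. 564-1049) captured on streptavidin chip (~3,000 RU); compounds injected 60 s, dissociation 600 s, at 25° C in Tris pH 8.0 buffer with 5% DMSO. Reference- and blank-subtracted; KD from kinetic or steady-state 1:1 binding fit.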

Compound	IC50 [1]	Kd (human SOS1)
C[C@@H](NC(=O)c1cn(C23CC(F)(C2)C3)c(=O)cc1NC1[C@@H]2CC[C@H]1CN(C)C2)c1cccc(C(F)F)c1F (stereo partly drawn) [Example 137, N-((R)-1-(3-(difluoromethyl)-2-fluorophenyl)ethyl)-1-(3-fluorobicyclo[1.1.1]pentan-1-yl)-4-(((1R,5S,8r)-3-methyl-3-azabicyclo[3.2.1]octan-8-yl)amino)-6-oxo-1,6-dihydropyridine-3-carboxamide]	35.3 nM	27 nM
C[C@@H](NC(=O)c1cn([C@@H]2CCC2(F)F)c(=O)cc1NCC1(F)CN(C)C1)c1cccc(C(F)F)c1F [Example 147, 1-((R)-2,2-difluorocyclobutyl)-N-((R)-1-(3-(difluoromethyl)-2-fluorophenyl)ethyl)-4-(((3-fluoro-1-methylazetidin-3-yl)methyl)amino)-6-oxo-1,6-dihydropyridine-3-carboxamide]	45 nM	73 nM
CO[C@H]1CN(C)CC[C@H]1Nc1cc(=O)n(C2(C(F)F)CC2)cc1C(=O)N[C@H](C)c1cccc(C(F)F)c1F [Example 153, N-((R)-1-(3-(difluoromethyl)-2-fluorophenyl)ethyl)-1-(1-(difluoromethyl)cyclopropyl)-4-(((3S,4R)-3-methoxy-1-methylpiperidin-4-yl)amino)-6-oxo-1,6-dihydropyridine-3-carboxamide]	58.4 nM	25 nM
CO[C@@H]1CN(C)CC[C@@H]1Nc1cc(=O)n(C2(C(F)F)CC2)cc1C(=O)N[C@H](C)c1cccc(C(F)F)c1F [Example 154, N-((R)-1-(3-(difluoromethyl)-2-fluorophenyl)ethyl)-1-(1-(difluoromethyl)cyclopropyl)-4-(((3R,4S)-3-methoxy-1-methylpiperidin-4-yl)amino)-6-oxo-1,6-dihydropyridine-3-carboxamide]	37.6 nM	23 nM
C[C@@H](NC(=O)c1cn(C23CC(C2)C3)c(=O)cc1N[C@H]1CN2CCC1CC2)c1cccc(C(F)F)c1F [Example 155, 1-(bicyclo[1.1.1]pentan-1-yl)-N-((R)-1-(3-(difluoromethyl)-2-fluorophenyl)ethyl)-6-oxo-4-(((R)-quinuclidin-3-yl)amino)-1,6-dihydropyridine-3-carboxamide]	21.2 nM	11 nM
C[C@@H](NC(=O)c1cn(C23CC(C2)C3)c(=O)cc1N[C@@H]1CN2CCC1CC2)c1cccc(C(F)F)c1F [Example 156, 1-(bicyclo[1.1.1]pentan-1-yl)-N-((R)-1-(3-(difluoromethyl)-2-fluorophenyl)ethyl)-6-oxo-4-(((S)-quinuclidin-3-yl)amino)-1,6-dihydropyridine-3-carboxamide]	12.4 nM	3 nM
N-((R)-1-(2-fluoro-3- (trifluoromethyl)phenyl)et hyl)-4-(((1R,5S,6s)-3- methyl-3- azabicyclo[3.1.0]hexan-6- yl)amino)-6-oxo-1-(1- (trifluoromethyl)cycloprop yl)-1,6-dihydropyridine-3- carboxamide [Example 120]	35.7 nM	24 nM
N-((R)-1-(3-(difluoromethyl)-2-fluorophenyl)ethyl)-1-(1- (difluoromethyl)cyclopropyl)-4-(((1R,5S,6s)-3-methyl-3-azabicyclo[3.1.0]hexan-6-yl)amino)-6- oxo-1,6-dihydropyridine-3-carboxamide [Example 55]	23.6 nM	12 nM

Further compounds by falling IC50 [1], results first:

IC50 [1]	Kd (human SOS1)	Compound
23.2 nM	11 nM	C[C@@H](NC(=O)c1cn(C23CC(C2)C3)c(=O)cc1N[C@H]1C[C@@H](N(C)C)C1)c1cccc(C(F)F)c1F [Example 133, 1-(bicyclo[1.1.1]pentan-1-yl)-N-((R)-1-(3-(difluoromethyl)-2-fluorophenyl)ethyl)-4-(((1s,3S)-3-(dimethylamino)cyclobuty 1)amino)-6-oxo-1,6-dihydropyridine-3-carboxamide]
22.1 nM	17 nM	C[C@@H](NC(=O)c1cn(C2(C(F)F)CCC2)c(=O)cc1N[C@H]1[C@@H]2CN(C)C[C@@H]21)c1cccc(C(F)F)c1F [Example 131, N-((R)-1-(3-(difluoromethyl)-2-fluorophenyl)ethyl)-1-(1-(difluoromethyl)cyclobuty 1)-4-(((1R,5S,6s)-3-methyl-3-azabicyclo[3.1.0]hexan-6-yl)amino)-6-oxo-1,6-dihydropyridine-3-carboxamide]
10.3 nM	8 nM	C[C@@H](NC(=O)c1cn(C23CCC(CC2)C3)c(=O)cc1N[C@H]1[C@@H]2CN(C)C[C@@H]21)c1cccc(C(F)F)c1F [Example 132, 1-(bicyclo[2.2.1]heptan-1-yl)-N-((R)-1-(3-(difluoromethyl)-2-fluorophenyl)ethyl)-4-(((1R,5S,6s)-3-methyl-3-azabicyclo[3.1.0]hexan-6-yl)amino)-6-oxo-1,6-dihydropyridine-3-carboxamide]
7.4 nM	4 nM	C[C@@H](NC(=O)c1cn([C@]2(C)CCOC2)c(=O)cc1N[C@H]1[C@@H]2CN(C)C[C@@H]21)c1cccc(C(F)F)c1F [Example 152, N-((R)-1-(3-(difluoromethyl)-2-fluorophenyl)ethyl)-4-(((1R,5S,6s)-3-methyl-3-azabicyclo[3.1.0]hexan-6-yl)amino)-1-((R)-3-methyltetrahydrofuran-3-yl)-6-oxo-1,6-dihydropyridine-3-carboxamide]
6 nM	3 nM	C[C@@H](NC(=O)c1cn(C23CC(F)(C2)C3)c(=O)cc1NC1[C@@H]2CC[C@H]1CN(C)C2)c1cccc(C(F)F)c1F (stereo partly drawn) [Example 136, N-((R)-1-(3-(difluoromethyl)-2-fluorophenyl)ethyl)-1-(3-fluorobicyclo[1.1.1]pentan-1-yl)-4-(((1R,SS,8s)-3-methyl-3-azabicyclo[3.2.1]octan-8-yl)amino)-6-oxo-1,6-dihydropyridine-3-carboxamide]
5.4 nM	9 nM	C[C@@H](NC(=O)c1cn([C@H]2CCC2(F)F)c(=O)cc1NCC1(F)CN(C)C1)c1cccc(C(F)F)c1F [Example 146, 1-((S)-2,2-difluorocyclobutyl)-N-((R)-1-(3-(difluoromethyl)-2-fluorophenyl)ethyl)-4-(((3-fluoro-1-methylazetidin-3-yl)methyl)amino)-6-oxo-1,6-dihydropyridine-3-carboxamide]
4.9 nM	4 nM	C[C@@H](NC(=O)c1cn(C23CC(F)(C2)C3)c(=O)cc1N[C@H]1CCN(C)C[C@H]1F)c1cccc(C(F)F)c1F [Example 142, N-((R)-1-(3-(difluoromethyl)-2-fluorophenyl)ethyl)-4-(((3R,4S)-3-fluoro-1-methylpiperidin-4-yl)amino)-1-(3-fluorobicyclo[1.1.1]pentan-1-yl)-6-oxo-1,6-dihydropyridine-3-carboxamide]
3.8 nM	3 nM	C[C@@H](NC(=O)c1cn(C23CC(F)(C2)C3)c(=O)cc1N[C@@H]1CCN(C)C[C@@H]1F)c1cccc(C(F)F)c1F [Example 143, N-((R)-1-(3-(difluoromethyl)-2-fluorophenyl)ethyl)-4-(((3S,4R)-3-fluoro-1-methylpiperidin-4-yl)amino)-1-(3-fluorobicyclo[1.1.1]pentan-1-yl)-6-oxo-1,6-dihydropyridine-3-carboxamide]
